Test system: soluble epoxide hydrolase (sEH)
Experiment: Fluorescent assay for mouse and human soluble epoxide hydrolase (CMNPC substrate)
Assay type: biochemical
Settings: inhibitor at 50 nM; recombinant sEH, CMNPC substrate 5 μM, 30° C., pH 7.0; mouse or human enzyme not given
Excerpt: Fluorescent Assay for Mouse and Human Soluble Epoxide Hydrolase
Recombinant mouse sEH (MsEH) and human sEH (HsEH) were produced in a baculovirus expression system as previously reported. Grant et al., J. Biol. Chem., 268:17628-17633 (1993); Beetham et al., Arch. Biochem. Biophys., 305:197-201 (1993). The expressed proteins were purified from cell lysate by affinity chromatography. Wixtrom et al., Anal. Biochem., 169:71-80 (1988). Protein concentration was quantified using the Pierce BCA assay using bovine serum albumin as the calibrating standard. The preparations were at least 97% pure as judged by SDS-PAGE and scanning densitometry. They contained no detectable esterase or glutathione transferase activity which can interfere with the assay. The assay was also evaluated with similar results in crude cell lysates or homogenate of tissues.
The IC50s for each inhibitor were according to the following procedure:
Cyano(2-methoxynaphthalen-6-yl)methyl(3-phenyloxiran-2-yl)methyl carbonate (CMNPC; Jones P. D. et. al.; Analytical Biochemistry 2005; 343: pp.66-75)
Bis/Tris HCl 25 mM pH 7.0 containing 0.1 mg/mL of BSA (buffer A)
CMNPC at 0.25 mM in DMSO.
Mother solution of enzyme in buffer A (Mouse sEH at 6 μg/mL and Human sEH at 5 μg/mL).
Inhibitor dissolved in DMSO at the appropriate concentration.
In a black 96 well plate, fill all the wells with 150 μL of buffer A.
Add 2 μL of DMSO in well A2 and A3, and then add 2 μL of inhibitor solution in A1 and A4 through A12.
Add 150 μL of buffer A in row A, then mix several time and transfer 150 μL to row B. Repeat this operation up to row H. The 150 μL removed from row H is discarded.
Add 20 μL of buffer A in column 1 and 2, then add 20 μL of enzyme solution to column 3 to 12.
Incubate the plate for 5 minutes in the plate reader at 30° C.
During incubation prepare the working solution of substrate by mixing 3.68 mL of buffer A (4×0.920 mL) with 266 μL (2×133 μL) of substrate solution).
At t=0, add 30 μL of working substrate solution with multi-channel pipette labeled “Briggs 303” and start the reading ([S]final: 5 μM).
Read with ex: 330 nm (20 nm) and em: 465 nm (20 nm) every 30 second for 10 minutes. The velocities are used to analyze and calculate the IC50s.

SMILES | % Inhibition at 50 nM
CC(=O)N1CCCC(NC(=O)NC23CC4CC(CC(C4)C2)C3)C1 (stereo not shown) [Compound 1, 1-(1-Acetyl-piperidin-3-yl)-3-adamantan-1-yl-urea] | 69%
CS(=O)(=O)N1CCCC(NC(=O)NC23CC4CC(CC(C4)C2)C3)C1 (stereo not shown) [Compound 2, 1-Adamantan-1-yl-3-(1-methanesulfonyl-piperidin-3-yl)-urea] | 76%
O=C(NC1CCCN(S(=O)(=O)c2ccc(Cl)cc2)C1)NC12CC3CC(CC(C3)C1)C2 (stereo not shown) [Compound 3, 1-Adamantan-1-yl-3-[1-(4-chloro-benzenesulfonyl)-piperidin-3-yl]-urea] | 94%
O=C(NC1CCCN(S(=O)(=O)c2cccc(C(F)(F)F)c2)C1)NC12CC3CC(CC(C3)C1)C2 (stereo not shown) [Compound 4, 1-Adamantan-1-yl-3-[1-(3-trifluoromethyl-benzenesulfonyl)-piperidin-3-yl]-urea] | 95%

— patent US20080200444A1, “SOLUBLE EPOXIDE HYDROLASE INHIBITORS” (Arete Therapeutics, Inc., priority 2006, published 2008)
